Calls of active or inactive are those of the source. The rule behind the calls is not given here.
Columns and labels:
HeLa = experiment: Cytotoxicity against human HeLa cells after 48 hrs by SRB method; assay type: functional, cell-based
Mycobacterium sp. = experiment: Antimycobacterial activity against Mycobacterium sp.; assay type: functional, organism-based
A549 = experiment: Cytotoxicity against human A549 cells after 48 hrs by SRB method; assay type: functional, cell-based; conditions: A549, 48 h
MCF7 = experiment: Cytotoxicity against human MCF7 cells after 48 hrs by SRB method; assay type: functional, cell-based; conditions: MCF7, 48 h
DU-145 [1] = experiment: Cytotoxicity against human DU145 cells after 48 hrs by SRB method; assay type: functional, cell-based; conditions: DU-145, 48 h
[2] = Cytotoxicity against mouse NIH/3T3 cells after 48 hrs by SRB method; assay type: cell-based; conditions: NIH3T3, 48 h
DU-145 [3] = experiment: Reduction in NF-kappaB p65 phosphorylation in human DU145 cells at 5 to 25 uM after 24 hrs by Western blotting analysis; assay type: functional, cell-based
DU-145 [4] = experiment: Cell cycle arrest in human DU145 cells assessed as accumulation at S phase at 5 uM after 24 hrs by RNase/propidium iodide staining-based flow cytometry (reference value: 4.24%); assay type: functional
DU-145 [5] = experiment: Cell cycle arrest in human DU145 cells assessed as accumulation at S phase at 25 uM after 24 hrs by RNase/propidium iodide staining-based flow cytometry (reference value: 4.24%); assay type: functional
DU-145 [6] = experiment: Cell cycle arrest in human DU145 cells assessed as accumulation at S phase at 10 uM after 24 hrs by RNase/propidium iodide staining-based flow cytometry (reference value: 4.24%); assay type: functional
DU-145 [7] = experiment: Cell cycle arrest in human DU145 cells assessed as accumulation at G2/M phase at 5 uM after 24 hrs by RNase/propidium iodide staining-based flow cytometry (reference value: 13.7%); assay type: functional
DU-145 [8] = experiment: Cell cycle arrest in human DU145 cells assessed as accumulation at G1 phase at 50 uM after 24 hrs by RNase/propidium iodide staining-based flow cytometry (reference value: 82.57%); assay type: functional
DU-145 [9] = experiment: Cell cycle arrest in human DU145 cells assessed as accumulation at G1 phase at 15 uM after 24 hrs by RNase/propidium iodide staining-based flow cytometry (reference value: 82.57%); assay type: functional
DU-145 [10] = experiment: Effect on NF-kappaB total expression in human DU145 cells at 5 to 25 uM after 24 hrs by Western blotting analysis; assay type: functional, cell-based
DU-145 [11] = experiment: Cell cycle arrest in human DU145 cells assessed as accumulation at G1 phase at 10 uM after 24 hrs by RNase/propidium iodide staining-based flow cytometry (reference value: 82.57%); assay type: functional
DU-145 [12] = experiment: Cell cycle arrest in human DU145 cells assessed as accumulation at G1 phase at 25 uM after 24 hrs by RNase/propidium iodide staining-based flow cytometry (reference value: 82.57%); assay type: functional
DU-145 [13] = experiment: Cell cycle arrest in human DU145 cells assessed as accumulation at G2/M phase at 50 uM after 24 hrs by RNase/propidium iodide staining-based flow cytometry (reference value: 13.7%); assay type: functional
DU-145 [14] = experiment: Cell cycle arrest in human DU145 cells assessed as accumulation at G2/M phase at 25 uM after 24 hrs by RNase/propidium iodide staining-based flow cytometry (reference value: 13.7%); assay type: functional
DU-145 [15] = experiment: Cell cycle arrest in human DU145 cells assessed as accumulation at G2/M phase at 15 uM after 24 hrs by RNase/propidium iodide staining-based flow cytometry (reference value: 13.7%); assay type: functional
DU-145 [16] = experiment: Cell cycle arrest in human DU145 cells assessed as accumulation at S phase at 15 uM after 24 hrs by RNase/propidium iodide staining-based flow cytometry (reference value: 4.24%); assay type: functional
DU-145 [17] = experiment: Cell cycle arrest in human DU145 cells assessed as accumulation at G2/M phase at 10 uM after 24 hrs by RNase/propidium iodide staining-based flow cytometry (reference value: 13.7%); assay type: functional
DU-145 [18] = experiment: Cell cycle arrest in human DU145 cells assessed as accumulation at G1 phase after 24 hrs by RNase/propidium iodide staining-based flow cytometry; assay type: functional
DU-145 [19] = experiment: Cell cycle arrest in human DU145 cells assessed as accumulation at G1 phase at 5 uM after 24 hrs by RNase/propidium iodide staining-based flow cytometry (reference value: 82.57%); assay type: functional
DU-145 [20] = experiment: Cell cycle arrest in human DU145 cells assessed as accumulation at S phase at 50 uM after 24 hrs by RNase/propidium iodide staining-based flow cytometry (reference value: 4.24%); assay type: functional
DU-145 [21] = experiment: Cell cycle arrest in human DU145 cells assessed as accumulation at G2/M phase after 24 hrs by RNase/propidium iodide staining-based flow cytometry; assay type: functional

Row | Structure (SMILES) | IC50 (HeLa) [µM] | Activity (Mycobacterium sp.) | IC50 (A549) [µM] | IC50 (MCF7) [µM] | IC50 (DU-145 [1]) [µM] | IC50 [2] [µM] | other results
1 | CCc1ccc(-c2nc3ccccc3c3c2[nH]c2ccccc23)cc1 | 19 | inactive | 9.33 | 9.84 | 46.2 | 200 | 
2 | c1ccc(COc2ccc(-c3nc4ccccc4c4c3[nH]c3ccccc34)cc2)cc1 | 67.9 | inactive | 29.9 | 58.9 | 70 | > 200 | 
3 | Cc1cn([C@H]2C[C@H](N=[N+]=[N-])[C@@H](CO)O2)c(=O)[nH]c1=O [ZIDOVUDINE] | 65.5 | inactive | 16.2 | 35 | 34.5 | > 200 | 
4 | c1csc(-c2ccc(-c3nc4ccccc4c4c3[nH]c3ccccc34)s2)c1 | 6.59 | inactive | 3.03 | 10.7 | 0.52 | 89.5 | Activity (DU-145 [3]): Active; Activity (DU-145 [4]): 3.61%; Activity (DU-145 [5]): 2.83%; Activity (DU-145 [6]): 3.79%; Activity (DU-145 [7]): 12.38%; Activity (DU-145 [8]): 97.58%; Activity (DU-145 [9]): 87.81%; Activity (DU-145 [10]): inactive; Activity (DU-145 [11]): 86.17%; Activity (DU-145 [12]): 89.28%; Activity (DU-145 [13]): 1.89%; Activity (DU-145 [14]): 7.89%; Activity (DU-145 [15]): 9.6%; Activity (DU-145 [16]): 2.97%; Activity (DU-145 [17]): 10.74%; Activity (DU-145 [18]): Dose-dependent effect; Activity (DU-145 [19]): 84.55%; Activity (DU-145 [20]): 0.63%
5 | Fc1cccc(Cl)c1-c1nc2ccccc2c2c1[nH]c1ccccc12 | 22.9 | inactive | 6.35 | 13.3 | 14 | 71.1 | 
6 | Cc1cn([C@H]2C[C@H](N=[N+]=[N-])[C@@H](c3nc4ccccc4c4c3[nH]c3ccccc34)O2)c(=O)[nH]c1=O | 17.3 | inactive | 6.2 | 4.78 | 10.1 | 63.3 | Activity (DU-145 [21]): Dose-dependent effect; Activity (DU-145 [3]): Active; Activity (DU-145 [4]): 4.16%; Activity (DU-145 [5]): 11.78%; Activity (DU-145 [6]): 5%; Activity (DU-145 [7]): 15.78%; Activity (DU-145 [8]): 52.07%; Activity (DU-145 [9]): 74.76%; Activity (DU-145 [10]): inactive; Activity (DU-145 [11]): 77.6%; Activity (DU-145 [12]): 62.12%; Activity (DU-145 [13]): 39.57%; Activity (DU-145 [14]): 28.22%; Activity (DU-145 [15]): 19.79%; Activity (DU-145 [16]): 6.53%; Activity (DU-145 [17]): 18.23%; Activity (DU-145 [19]): 80.75%; Activity (DU-145 [20]): 9.74%
7 | COc1ccc(-c2nc3ccccc3c3c2[nH]c2ccccc23)cc1 | 36.1 | inactive | 23.8 | 27.8 | 62 | 114 | 
8 | CC(C)c1nc2ccccc2c2c1[nH]c1ccccc12 | 18.2 | inactive | 18.1 | 20.2 | 43.9 | > 200 | 
9 | FC(F)(F)c1ccc(-c2nc3ccccc3c3c2[nH]c2ccccc23)cc1 | 20.8 | inactive | 3.71 | 5.07 | 4.19 | 110 | 
10 | c1ccc(Oc2ccc(-c3nc4ccccc4c4c3[nH]c3ccccc34)cc2)cc1 | 42.8 | inactive | 13.2 | 49.6 | 54 | > 200 | 
11 | C=CCOc1ccc(-c2nc3ccccc3c3c2[nH]c2ccccc23)cc1 | 27.5 | inactive | 6.22 | 11.9 | 23.6 | > 200 | 
12 | Brc1ccc(-c2nc3ccccc3c3c2[nH]c2ccccc23)cc1 | 49.3 | inactive | 17.1 | 23.4 | 18.6 | > 200 | 
13 | COc1cccc2c1C(=O)c1c(O)c3c(c(O)c1C2=O)C[C@@](O)(C(=O)CO)C[C@@H]3O[C@H]1C[C@H](N)[C@H](O)[C@H](C)O1 [DOXORUBICIN] | 1.43 |  | 1.11 | 2.31 | 3.11 | 5.91 | 
14 | c1ccc2nc(-c3nc4ccccc4c4c3[nH]c3ccccc34)ccc2c1 | 69.9 | inactive | 68.4 | 52.6 | 41.5 | > 200 | 

From ChEMBL document CHEMBL3421548, “PMA-SiO2 catalyzed synthesis of indolo[2,3-c]quinolines as potent anti cancer agents” (Bioorg Med Chem Lett, 2015)
